Source: patent US20150268248A1, “CELL SELECTIVE PROTEOME LABELING” (MEMORIAL SLOAN-KETTERING CANCER CENTER, priority 2012, published 2015)
“Also recorded” adds a separate entry of the source.

Key:
3T3 cells = test: Growth of wild-type cells on L-Lysine precursors (Resazurin/AlamarBlue); assay type: cell-based, mouse; settings: wild-type 3T3; medium without L-Lysine supplemented with high (mM-range) concentrations of precursor
Experimental: (§1) (a) Cells were seeded in 96 well format using at least 4 replicates per condition and cell proliferation was measured with the Resazurin (AlamarBlue) assay at the time indicated.
(§2) To investigate the candidate precursors and eliminate those that autonomously rescue L-Lysine auxotrophy, growth rates in SILAC media supplemented with L-Lysine, various precursors, or in L-Lysine-free conditions were examined.
(§3) Cell lines were grown in Dulbecco's modified Eagle's medium (DMEM) without L-Lysine and L-Arginine (SILAC-DMEM, Thermo Fisher Scientific) supplemented with 10% dialyzed FBS, antibiotics, and L-glutamine. […] Cell viability was measured using either the metabolic-activity based Resazurin (Sigma) reagent or the impedance-based xCELLigence system (Roche). For Resazurin experiments, 25 μL of the Resazurin reagent was added to each well and cellular growth was estimated after two to three hours of incubation at 37° C. as described by the manufacturer. For xCELLigence experiments, cells were plated in either 16 or 96-well E-plates, allowed to settle for 30 minutes at room temperature, and then placed in the RTCA DP or RTCA MP analyzer where impedance was measured every 15 minutes for 96-120 hours. At least three replicates were performed for each condition.

HEK 293T cells = test: as above; assay type: cell-based, human; settings: wild-type HEK 293T; medium without L-Lysine supplemented with high (mM-range) concentrations of precursor
Experimental: as §1, §2, §3

[1] = test system: CBZcleaver-expressing 3T3 cells; test: Growth on Z-Lysine (xCELLigence impedance); assay type: cell-based, mouse; settings: 2.5 mM Z-Lysine, L-Lysine-free
Experimental: FIG. 10 are graphs showing that 3T3 cells expressing the CBZcleaver enzyme grow on Z-Lysine and partially incorporate L-Lysine produced from Z-Lysine (CBZ-Lysine). (a) 3T3 cells stably trasfected with CBZcleaver (left panel) or empty control vector (right panel) were cultured in 0.798 mM L-Lysine, 2.5 mM Z-Lysine, or without either (blank). Cell growth was estimated by the impedance-based xCELLigence assay and data was normalized to maximum values for each cell-type. Error bars represent the standard deviation of three biological replicates. […] The labeling status was assessed by quantitative LC-MS/MS at the beginning of the experiment where the cells were labeled with medium L-Lysine (left, K4) and after 10 days in L-Lysine-free media with heavy labeled Z-Lysine (right, Z8). […]
as §3, with “For Resazurin experiments, 25 μL of the Resazurin reagent was added to each well and cellular growth was estimated after two to three hours of incubation at 37° C. as described by the manufacturer.” left out, “At least three replicates were performed for each condition.” left out

[2] = test system: B16 cells expressing truncated Lysine racemase (lyr); test: Growth on D-lysine of cells expressing truncated lyr; assay type: cell-based, mouse; settings: mono- and co-culture in vitro
Experimental: CTAP can be quickly adaptable across many cell types without phenotypic or molecular disturbance. Cell lines that are suitable for use in practicing the method of the invention include, but are not limited to mouse fibroblast 3T3 cells, mouse melanoma, B16 cells, human embryonic kidney (HEK) cells, human mammary adenocarcinoma cells, […], etc.
Cell lines were grown in Dulbecco's modified Eagle's medium (DMEM) without L-Lysine and L-Arginine (SILAC-DMEM, Thermo Fisher Scientific) supplemented with 10% dialyzed FBS, antibiotics, and L-glutamine. For mono-culture growth assays, 1 mM L-Arginine was added to the media and cells were seeded in 200 μL in 96-well plates with 4000 or 5000 cells per well in different concentrations of L-Lysine, meso-2,6-diaminopimelate (DAP, Sigma, 33240), D-Lysine HCL (Sigma, L5876), N-α-Cbz-L-Lysine (Z-Lysine, BaChem, C-2200), or N2-acetyl-L-Lysine (N2A, Sigma, A2010). Cell viability was measured using either the metabolic-activity based Resazurin (Sigma) reagent or the impedance-based xCELLigence system (Roche). […] For xCELLigence experiments, cells were plated in either 16 or 96-well E-plates, allowed to settle for 30 minutes at room temperature, and then placed in the RTCA DP or RTCA MP analyzer where impedance was measured every 15 minutes for 96-120 hours. […]

[3] = test system: MDA-MB-231 cells expressing truncated Lysine racemase (lyr); test: as above; assay type: cell-based, human; settings: mono- and co-culture in vitro
Experimental: (§4) Cell lines were grown in Dulbecco's modified Eagle's medium (DMEM) without L-Lysine and L-Arginine (SILAC-DMEM, Thermo Fisher Scientific) supplemented with 10% dialyzed FBS, antibiotics, and L-glutamine. For mono-culture growth assays, 1 mM L-Arginine was added to the media and cells were seeded in 200 μL in 96-well plates with 4000 or 5000 cells per well in different concentrations of L-Lysine, meso-2,6-diaminopimelate (DAP, Sigma, 33240), D-Lysine HCL (Sigma, L5876), N-α-Cbz-L-Lysine (Z-Lysine, BaChem, C-2200), or N2-acetyl-L-Lysine (N2A, Sigma, A2010). Cell viability was measured using either the metabolic-activity based Resazurin (Sigma) reagent or the impedance-based xCELLigence system (Roche). For Resazurin experiments, 25 μL of the Resazurin reagent was added to each well and cellular growth was estimated after two to three hours of incubation at 37° C. as described by the manufacturer. For xCELLigence experiments, cells were plated in either 16 or 96-well E-plates, allowed to settle for 30 minutes at room temperature, and then placed in the RTCA DP or RTCA MP analyzer where impedance was measured every 15 minutes for 96-120 hours. At least three replicates were performed for each condition.

[4] = test system: lyr-expressing MDA-MB-231 cells; test: Growth rescue on precursors in L-Lysine-free medium (xCELLigence impedance); assay type: cell-based, human; settings: 4 mM D-Lysine or 10 mM DAP, mono-culture
Experimental: (§5) Cell growth, assessed with impedance (a correlate of the number of cells) using the xCELLigence system, was normalized to maximum growth. Error bars represent the standard deviation of three biological replicates.
as §3

DDC-expressing 3T3 cells = test: as above; assay type: cell-based, mouse; settings: 10 mM DAP or 4 mM D-Lysine, mono-culture
Experimental: as §5, §3

[5] = test system: HEK293T cells expressing a truncated Lysine racemase (lyr); test: Growth on D-lysine of cells expressing truncated lyr (xCELLigence impedance); assay type: cell-based, human; settings: mono- and co-culture in vitro
Experimental: as §5
as §4, with “At least three replicates were performed for each condition.” left out

[6] = test system: DDC-expressing HEK293T cells; test: Growth rescue on precursors in L-Lysine-free medium (xCELLigence impedance); assay type: cell-based, human; settings: 10 mM DAP, mono-culture
Experimental: FIG. 9 are graphs showing that HEK293T cells expressing the L-Lysine biosynthesis enzyme diaminopimelate decarboxylase (DDC) specifically grow on meso-2,6-diaminopimelate (DAP). HEK293T cells stably transfected with DDC (left panel) or empty control vector (right panel) were cultured in 0.798 mM L-Lysine, 10 mM DAP, or neither (blank). Cell growth was estimated by the impedance-based xCelligence assay and data was normalized to the maximum value for each cell-type. Note that only HEK293T cells that express DDC grow on DAP. Error bars represent the standard deviation of three biological replicates.
The time to reach normal growth rates varied between cell-types from immediate to a short passaging/selection period.
as §3, with “For Resazurin experiments, 25 μL of the Resazurin reagent was added to each well and cellular growth was estimated after two to three hours of incubation at 37° C. as described by the manufacturer.” left out, “At least three replicates were performed for each condition.” left out

| SMILES | growth response (3T3 cells) | growth response (HEK 293T cells) | growth on Z-Lysine [1] | growth on D-lysine relative to growth on L-lysine [2] | growth on D-lysine relative to growth on L-lysine [3] | growth rate relative to media containing L-Lysine [4] | growth rate relative to media containing L-Lysine (DDC-expressing 3T3 cells) | growth on D-lysine relative to growth on L-lysine [5] | growth rate relative to media containing L-Lysine [6] |
| --- | --- | --- | --- | --- | --- | --- | --- | --- | --- |
| CC(=O)N[C@@H](CCCCN)C(=O)O [N2A, N2-acetyl-L-Lysine] | substantial growth response | substantial growth response |  |  |  |  |  |  |  |
| NCCCC[C@H](NC(=O)OCc1ccccc1)C(=O)O [Z-Lysine, N-α-Cbz-L-Lysine] | no or limited growth response | no or limited growth response | incomplete; also recorded: specific growth rescue |  |  |  |  |  |  |
| NCCCC[C@@H](N)C(=O)O [D-Lysine] | no or limited growth response | no or limited growth response |  | comparable | comparable | comparable | no growth | comparable |  |
| N[C@H](CCC[C@H](N)C(=O)O)C(=O)O [DAP, meso-2,6-diaminopimelate] | no or limited growth response | no or limited growth response |  |  |  | no growth | comparable |  | comparable |
